From US10670605B2, “Cysteine reactive probes and uses thereof” (The Scripps Research Institute, priority 2015, dated 2020)

Legend:
Assay in all cases: Competitive isoTOP-ABPP in situ (fragment-treated cells)
Format in all cases: cell-based
[1] = molecular target: T1, cysteines in MDA-MB-231 and Ramos cells (Homo sapiens, UniProt Q9UMS0)
T1 sequence (Q9UMS0 10-254): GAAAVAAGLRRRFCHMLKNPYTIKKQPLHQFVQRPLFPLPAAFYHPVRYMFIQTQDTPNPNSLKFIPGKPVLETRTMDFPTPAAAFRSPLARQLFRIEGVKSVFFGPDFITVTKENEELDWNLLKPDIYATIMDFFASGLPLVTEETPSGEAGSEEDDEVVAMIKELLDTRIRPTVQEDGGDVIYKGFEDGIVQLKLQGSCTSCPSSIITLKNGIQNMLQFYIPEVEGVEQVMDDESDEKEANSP

[2] = molecular target: T2, cysteines in MDA-MB-231 and Ramos cells (Homo sapiens, UniProt Q13155)
T2 sequence (Q13155 1-320): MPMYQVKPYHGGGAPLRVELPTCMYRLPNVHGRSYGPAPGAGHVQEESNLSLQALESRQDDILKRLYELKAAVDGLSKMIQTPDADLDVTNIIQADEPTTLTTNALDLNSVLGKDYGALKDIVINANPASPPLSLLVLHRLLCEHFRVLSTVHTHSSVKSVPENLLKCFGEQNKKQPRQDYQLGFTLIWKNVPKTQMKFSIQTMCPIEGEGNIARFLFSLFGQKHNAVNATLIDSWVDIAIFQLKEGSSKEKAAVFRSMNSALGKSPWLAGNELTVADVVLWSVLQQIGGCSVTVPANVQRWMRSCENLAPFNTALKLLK

[3] = molecular target: T3, cysteines in MDA-MB-231 and Ramos cells (Homo sapiens, UniProt P50570)
T3 sequence (P50570 1-870): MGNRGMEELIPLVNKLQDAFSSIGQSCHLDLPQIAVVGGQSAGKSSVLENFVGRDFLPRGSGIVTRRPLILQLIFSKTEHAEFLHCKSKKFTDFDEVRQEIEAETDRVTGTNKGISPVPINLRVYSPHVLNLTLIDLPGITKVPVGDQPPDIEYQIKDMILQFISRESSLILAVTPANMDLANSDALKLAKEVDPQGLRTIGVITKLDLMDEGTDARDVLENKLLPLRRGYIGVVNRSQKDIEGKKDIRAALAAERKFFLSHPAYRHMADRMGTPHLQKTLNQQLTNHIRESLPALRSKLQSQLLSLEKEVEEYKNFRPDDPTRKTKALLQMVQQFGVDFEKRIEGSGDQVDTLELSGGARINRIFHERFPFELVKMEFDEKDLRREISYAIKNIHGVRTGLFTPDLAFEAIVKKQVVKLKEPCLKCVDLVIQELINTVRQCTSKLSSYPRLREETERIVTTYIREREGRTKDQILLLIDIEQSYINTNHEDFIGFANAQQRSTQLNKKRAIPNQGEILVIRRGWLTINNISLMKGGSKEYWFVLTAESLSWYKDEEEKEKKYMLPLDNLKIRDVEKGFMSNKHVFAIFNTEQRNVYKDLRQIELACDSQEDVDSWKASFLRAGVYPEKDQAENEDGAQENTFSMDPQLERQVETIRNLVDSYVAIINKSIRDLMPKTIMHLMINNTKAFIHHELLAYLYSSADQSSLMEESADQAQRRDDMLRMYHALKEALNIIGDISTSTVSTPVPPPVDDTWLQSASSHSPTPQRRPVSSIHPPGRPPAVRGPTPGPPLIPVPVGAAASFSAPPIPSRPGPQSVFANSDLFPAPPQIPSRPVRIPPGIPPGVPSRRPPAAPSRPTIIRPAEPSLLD

[4] = molecular target: T4, cysteines in MDA-MB-231 and Ramos cells (Homo sapiens, UniProt P51946)
T4 sequence (P51946 1-323): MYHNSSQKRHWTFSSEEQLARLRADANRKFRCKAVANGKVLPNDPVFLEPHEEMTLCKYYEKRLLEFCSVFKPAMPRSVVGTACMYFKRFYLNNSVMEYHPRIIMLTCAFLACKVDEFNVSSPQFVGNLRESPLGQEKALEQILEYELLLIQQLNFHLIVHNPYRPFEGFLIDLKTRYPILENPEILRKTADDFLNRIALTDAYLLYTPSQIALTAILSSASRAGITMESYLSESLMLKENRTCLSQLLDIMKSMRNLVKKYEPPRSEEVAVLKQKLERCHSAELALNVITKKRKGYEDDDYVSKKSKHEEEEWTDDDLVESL

[5] = molecular target: T5, cysteines in MDA-MB-231 and Ramos cells (Homo sapiens, UniProt P04183)
T5 sequence (P04183 1-234): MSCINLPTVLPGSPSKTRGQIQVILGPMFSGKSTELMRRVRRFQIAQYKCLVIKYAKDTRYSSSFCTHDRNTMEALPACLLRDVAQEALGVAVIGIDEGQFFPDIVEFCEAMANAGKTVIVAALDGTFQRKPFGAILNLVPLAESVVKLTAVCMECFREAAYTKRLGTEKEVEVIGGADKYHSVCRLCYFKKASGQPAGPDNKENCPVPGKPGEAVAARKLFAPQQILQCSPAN

[6] = molecular target: T6, cysteines in MDA-MB-231 and Ramos cells (Homo sapiens, UniProt P35611)
T6 sequence (P35611 1-737): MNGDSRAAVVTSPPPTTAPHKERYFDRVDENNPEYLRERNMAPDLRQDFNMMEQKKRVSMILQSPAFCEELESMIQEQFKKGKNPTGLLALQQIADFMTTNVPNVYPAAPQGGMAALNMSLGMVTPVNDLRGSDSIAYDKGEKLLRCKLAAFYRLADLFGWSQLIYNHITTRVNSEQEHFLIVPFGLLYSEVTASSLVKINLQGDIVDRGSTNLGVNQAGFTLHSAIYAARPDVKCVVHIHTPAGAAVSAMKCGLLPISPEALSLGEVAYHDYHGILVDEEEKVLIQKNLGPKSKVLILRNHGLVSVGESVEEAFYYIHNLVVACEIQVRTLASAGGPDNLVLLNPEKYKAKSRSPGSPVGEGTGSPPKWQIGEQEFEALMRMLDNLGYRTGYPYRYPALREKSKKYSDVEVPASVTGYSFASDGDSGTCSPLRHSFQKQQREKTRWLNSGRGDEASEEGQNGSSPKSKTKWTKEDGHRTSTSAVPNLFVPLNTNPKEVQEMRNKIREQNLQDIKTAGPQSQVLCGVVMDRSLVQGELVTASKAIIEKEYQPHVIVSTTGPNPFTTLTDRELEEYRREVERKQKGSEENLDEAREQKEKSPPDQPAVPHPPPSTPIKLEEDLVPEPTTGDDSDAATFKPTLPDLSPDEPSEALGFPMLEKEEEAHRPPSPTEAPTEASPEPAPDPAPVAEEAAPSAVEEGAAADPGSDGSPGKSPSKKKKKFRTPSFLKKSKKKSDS

| SMILES | isoTOP-ABPP ratio Q9UMS0_C213 ([1]; 200 μM, insitu, 231) | isoTOP-ABPP ratio Q13155_C23 ([2]; 200 μM, insitu, 231) | isoTOP-ABPP ratio Q13155_C291 ([2]; 200 μM, insitu, 231) | isoTOP-ABPP ratio P50570_C27 ([3]; 200 μM, insitu, 231) | isoTOP-ABPP ratio P51946_C244 ([4]; 200 μM, insitu, 231) | isoTOP-ABPP ratio P04183_C230 ([5]; 200 μM, insitu, 231) | isoTOP-ABPP ratio P35611_C68 ([6]; 200 μM, insitu, 231) | further results |
| --- | --- | --- | --- | --- | --- | --- | --- | --- |
| COc1ccc(C2CC(c3cccs3)=NN2C(=O)CCl)cc1 (stereo not drawn) [compound 4] | – | – | – | – | – | – | – | isoTOP-ABPP reactivity Q9UMS0_C213 NFU1 ([1]; 100 μM in situ 231): 4.4; isoTOP-ABPP reactivity Q13155_C23 AIMP2 ([2]; 100 μM in situ 231): 2.8; isoTOP-ABPP reactivity Q13155_C291 AIMP2 ([2]; 100 μM in situ 231): 20.0; isoTOP-ABPP reactivity P50570_C27 DNM2 ([3]; 100 μM in situ 231): 2.2; isoTOP-ABPP reactivity P51946_C244 CCNH ([4]; 100 μM in situ 231): 5.3; isoTOP-ABPP reactivity P04183_C230 TK1 ([5]; 100 μM in situ 231): 0.8; isoTOP-ABPP reactivity P35611_C68 ADD1 ([6]; 100 μM in situ 231): 4.3 |
| O=C(CCl)Nc1cccc2ncccc12 [compound 51] | 1.8 | 1.2 | 1.1 | 1.1 | 0.7 | 0.7 | 1.0 | – |
| CC1CCc2ccccc2N1C(=O)CCl (stereo not drawn) [compound 45] | 7.1 | 4.4 | 7.3 | 15.4 | 2.4 | 2.0 | 20.0 | – |
| O=C(CCl)NC(=O)NC12CC3CC(CC(C3)C1)C2 [compound 12] | 20.0 | 1.6 | 1.1 | 0.7 | 1.3 | – | 3.6 | – |
| O=C(CCl)N1CCN(S(=O)(=O)c2ccccc2F)CC1 [compound 10] | 20.0 | 2.3 | 1.7 | 3.1 | 1.7 | 1.3 | 1.9 | – |
| O=C(CCl)N1CCN(CC(=O)N2CCOCC2)CC1 [compound 29] | – | – | – | – | – | – | – | isoTOP-ABPP ratio Q9UMS0_C213 ([1]; 200 μM, insitu, ramos): 2.0; isoTOP-ABPP ratio Q13155_C23 ([2]; 200 μM, insitu, ramos): 1.6; isoTOP-ABPP ratio P50570_C27 ([3]; 200 μM, insitu, ramos): 1.0; isoTOP-ABPP ratio P51946_C244 ([4]; 200 μM, insitu, ramos): 1.1; isoTOP-ABPP ratio P04183_C66 ([5]; 200 μM, insitu, ramos): 1.6; isoTOP-ABPP ratio P04183_C230 ([5]; 200 μM, insitu, ramos): 1.2 |
| CC(C)CCOCCNC(=O)CCl [compound 27] | 1.3 | 0.7 | 0.7 | 0.5 | 1.1 | – | 0.9 | – |
| O=C(CCl)N1CCC(Cc2ccccc2)CC1 [compound 9] | – | – | – | – | – | – | – | isoTOP-ABPP reactivity Q13155_C291 AIMP2 ([2]; 200 μM, insitu, 231): 1.9; isoTOP-ABPP reactivity P04183_C66 TK1 ([5]; 200 μM, insitu, 231): 7.0; isoTOP-ABPP reactivity P04183_C230 TK1 ([5]; 200 μM, insitu, 231): 10.0; isoTOP-ABPP reactivity P35611_C68 ADD1 ([6]; 200 μM, insitu, 231): 4.3 |
| O=C(CCl)NC12CC3CC(CC(C3)C1)C2 [compound 21] | – | 0.9 | 0.8 | 0.8 | 1.4 | 0.7 | 0.8 | – |
| COc1ccc2c(c1)CCCN2C(=O)CCl [compound 2] | – | – | – | – | – | – | – | isoTOP-ABPP reactivity Q9UMS0_C213 NFU1 ([1]; 200 μM, insitu, 231): 7.4; isoTOP-ABPP reactivity Q13155_C291 AIMP2 ([2]; 200 μM, insitu, 231): 20.0; isoTOP-ABPP reactivity P50570_C27 DNM2 ([3]; 200 μM, insitu, 231): 4.6; isoTOP-ABPP reactivity P51946_C244 CCNH ([4]; 200 μM, insitu, 231): 1.9; isoTOP-ABPP reactivity P04183_C230 TK1 ([5]; 200 μM, insitu, 231): 1.9; isoTOP-ABPP reactivity P35611_C68 ADD1 ([6]; 200 μM, insitu, 231): 5.8 |
| Cn1cc(S(=O)(=O)N2CCOCC2)cc1C(=O)NC(=O)CCl [compound 11] | – | – | – | – | – | – | – | isoTOP-ABPP ratio Q13155_C23 ([2]; 100 μM in situ 231): 1.2; isoTOP-ABPP ratio Q13155_C291 ([2]; 100 μM in situ 231): 0.9; isoTOP-ABPP ratio P50570_C27 ([3]; 100 μM in situ 231): 0.7; isoTOP-ABPP ratio P51946_C244 ([4]; 100 μM in situ 231): 1.3; isoTOP-ABPP ratio, cysteine P04183_C66 ([5]; 100 μM in situ 231): 0.6; isoTOP-ABPP ratio P35611_C68 ([6]; 100 μM in situ 231): 0.9 |
| COc1ccccc1OCCNC(=O)CCl [compound 28] | – | – | 0.9 | – | – | – | 1.7 | – |
| O=C(CCl)NCCc1c[nH]c2ccccc12 [compound 13] | 1.6 | 0.9 | – | – | 1.0 | 0.7 | 1.1 | isoTOP-ABPP ratio P50570_C27 ([3]; 200 μM, insitu, ramos): 1.0; isoTOP-ABPP ratio P51946_C244 ([4]; 200 μM, insitu, ramos): 1.2; isoTOP-ABPP ratio, cysteine P04183_C66 ([5]; 200 μM, insitu, 231): 1.0; isoTOP-ABPP ratio P35611_C68 ([6]; 200 μM, insitu, ramos): 1.0 |
| C=CC(=O)N(Cc1cccnc1)c1cc(C(F)(F)F)cc(C(F)(F)F)c1 [compound 31] | 1.5 | – | 0.8 | – | – | – | – | isoTOP-ABPP ratio P04183_C66 ([5]; 200 μM, insitu, 231): 0.7; isoTOP-ABPP ratio P04183_C230 ([5]; 200 μM, insitu, ramos): 2.1 |
| COc1cc2c(cc1OC)CN(C(=O)CCl)CC2 [compound 8] | – | – | – | – | – | – | – | isoTOP-ABPP reactivity Q13155_C23 AIMP2 ([2]; 200 μM, insitu, 231): 2.7; isoTOP-ABPP reactivity Q13155_C291 AIMP2 ([2]; 200 μM, insitu, 231): 2.4; isoTOP-ABPP reactivity P04183_C66 TK1 ([5]; 200 μM, insitu, 231): 2.3; isoTOP-ABPP reactivity P35611_C68 ADD1 ([6]; 200 μM, insitu, 231): 2.4 |
